For the assay, the target named is T1, human Mnk2a (Homo sapiens, UniProt Q9HBH9).
T1 construct: made in house; host or cells: E. coli BL21 (vector pGEX-4T1)
The assay can be described thus: Mnk2a in vitro kinase assay (indirect fluorescence polarization). The assay is classed as biochemical. The conditions noted are these: GST-Mnk2a pre-activated with ERK2, 20 μM ATP, 30 μM substrate peptide; read-out: MNK2 IC50. In a few lines: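 Indirect competitive fluorescence polarization: kinase-generated phospho-product displaces a fluorophore-labelled phospho-peptide from a phospho-specific antibody. Enzyme is N-terminal GST-Mnk2a from E. coli, activated with pre-activated ERK2 and 50 μM ATP; substrate is an amidated 12-mer peptide around eIF4E Ser209.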

T1 sequence (Q9HBH9 whole entry): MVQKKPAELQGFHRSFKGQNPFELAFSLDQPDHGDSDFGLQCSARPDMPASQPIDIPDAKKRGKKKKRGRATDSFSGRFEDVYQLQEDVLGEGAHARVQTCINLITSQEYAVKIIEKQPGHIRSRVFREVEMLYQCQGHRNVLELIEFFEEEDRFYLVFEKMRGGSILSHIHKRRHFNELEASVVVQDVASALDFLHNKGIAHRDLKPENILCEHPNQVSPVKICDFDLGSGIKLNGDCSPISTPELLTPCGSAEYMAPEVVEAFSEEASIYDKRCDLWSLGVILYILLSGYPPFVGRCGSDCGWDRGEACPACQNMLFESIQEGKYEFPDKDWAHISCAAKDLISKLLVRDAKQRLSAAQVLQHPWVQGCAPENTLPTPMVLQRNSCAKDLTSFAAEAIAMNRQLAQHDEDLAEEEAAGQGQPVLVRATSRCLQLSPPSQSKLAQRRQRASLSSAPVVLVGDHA

Turning to `Cc1c(C(=O)NCC2CN(C)CCO2)sc2ncnc(Nc3ccc(F)cc3O[C@H]3CCOC3)c12` (stereo partly drawn) [Example 110], the IC50 came out at 21 nM.
Then `Cc1c(C(=O)NCCCN2CCCC2)sc2ncnc(Nc3ccc(F)cc3O[C@H]3CCOC3)c12` [Example 111], with 22 nM; and `Cc1c(C(=O)NC2CC2)sc2ncnc(Nc3ccc(F)cc3O[C@H]3CCOC3)c12` [Example 112], with 21 nM.
As for `Cc1c(C(N)=O)sc2ncnc(Nc3ccc(F)cc3O[C@H]3C[C@@H](CO)N(S(C)(=O)=O)C3)c12` [Example 113, 4-[4-Fluoro-2-((3S,5S)-5-hydroxymethyl-1-methanesulfonyl-pyrrolidin-3-yloxy)-phenylamino]-5-methyl-thieno[2,3-d]pyrimidine-6-carboxylic acid amide], the figure is 420 nM; as for `COC(=O)c1sc2ncnc(Nc3ccc(F)cc3O[C@H]3C[C@H]4COC(=O)N4C3)c2c1C` [Example 114, 4-[4-Fluoro-2-((6S,7aS)-3-oxo-tetrahydro-pyrrolo[1,2-d]oxazol-6-yloxy)-phenylamino]-5-methyl-thieno[2,3-d]pyrimidine-6-carboxylic acid methyl ester], 550 nM.
Regarding `Cc1c(C(N)=O)sc2ncnc(Nc3ccc(F)cc3O[C@@H]3CN[C@H](CO)C3)c12` [Example 115, 4-[4-Fluoro-2-((3S,5S)-5-hydroxymethyl-pyrrolidin-3-yloxy)-phenylamino]-5-methyl-thieno[2,3-d]pyrimidine-6-carboxylic acid amide], the IC50 was 100 nM.
Turning to `Cc1c(C(=O)NCC2CN(C)CCO2)sc2ncnc(Nc3ccc(F)cc3OC3CCOCC3)c12` (stereo not drawn) [Example 116, 4-[4-Fluoro-2-(tetrahydro-pyran-4-yloxy)-phenylamino]-5-methyl-thieno[2,3-d]pyrimidine-6-carboxylic acid (4-methyl-morpholin-2-ylmethyl)-amide trifluoracetate], the IC50 was determined as 22 nM.
Regarding `Cc1c(C(=O)NCC2CN(C)CCO2)sc2ncnc(Nc3ccc(F)cc3OC3CCOCC3)c12` (stereo not drawn) [Example 117], the IC50 was found to be 22 nM.
As for `Cc1c(C(=O)NCCCN2CCCC2)sc2ncnc(Nc3ccc(F)cc3OC3CCOCC3)c12` [Example 118], the figure is 29 nM.
`Cc1c(C(=O)NCCC2CCCN2C)sc2ncnc(Nc3ccc(F)cc3OC3CCOCC3)c12` (stereo not drawn) [Example 119]: the half-inhibitory concentration (IC50) is 26 nM.
Then `Cc1c(C(=O)NCCCN2CCN(C)CC2)sc2ncnc(Nc3ccc(F)cc3OC3CCOCC3)c12` [Example 120], with 22 nM; and `COC[C@H]1CCCN1CCCNC(=O)c1sc2ncnc(Nc3ccc(F)cc3OC3CCOCC3)c2c1C` [Example 121], with 33 nM.
As for `COC[C@@H]1CCCN1CCCNC(=O)c1sc2ncnc(Nc3ccc(F)cc3OC3CCOCC3)c2c1C` [Example 122], the IC50 was determined as 48 nM.
Then `Cc1c(C(=O)NCC2CCCN(C)C2)sc2ncnc(Nc3ccc(F)cc3OC3CCOCC3)c12` (stereo not drawn) [Example 123], with 38 nM; and `Cc1c(C(=O)NCCCN2CCC(F)(F)C2)sc2ncnc(Nc3ccc(F)cc3OC3CCOCC3)c12` [Example 124], with 31 nM; and `Cc1c(C(=O)NCCCN2CC(F)(F)C2)sc2ncnc(Nc3ccc(F)cc3OC3CCOCC3)c12` [Example 125], with 25 nM.
Take `Cc1c(C(=O)NCCCN(C)CCN(C)C)sc2ncnc(Nc3ccc(F)cc3OC3CCOCC3)c12` [Example 126]: the 50% inhibitory concentration (IC50) turned out to be 26 nM.
As for `Cc1c(C(=O)NCC2CNCCO2)sc2ncnc(Nc3ccc(F)cc3OC3CCOCC3)c12` (stereo not drawn) [Example 127], the figure is 17 nM; as for `Cc1c(C(=O)NCC(N)=O)sc2ncnc(Nc3ccc(F)cc3OC3CCOCC3)c12` [Example 128], 41 nM; as for `Cc1c(C(=O)N[C@H]2CC[C@H](CO)CC2)sc2ncnc(Nc3ccc(F)cc3OC3CCOCC3)c12` [Example 129], 32 nM.
Then `CC(=O)NCCCNC(=O)c1sc2ncnc(Nc3ccc(F)cc3OC3CCOCC3)c2c1C` [Example 130], with 36 nM; and `Cc1c(C(=O)NCCCN2CCCC2=O)sc2ncnc(Nc3ccc(F)cc3OC3CCOCC3)c12` [Example 131], with 35 nM; and `Cc1c(C(=O)NCC#CCN)sc2ncnc(Nc3ccc(F)cc3OC3CCOCC3)c12` [Example 134], with 16 nM.
As for `Cc1c(C(=O)NC(C)C)sc2ncnc(Nc3ccc(F)cc3OC3CCOCC3)c12` [Example 135], the figure is 43 nM.
With `Cc1c(C(=O)N[C@H]2C[C@H]2N)sc2ncnc(Nc3ccc(F)cc3OC3CCOCC3)c12` [Example 136], the IC50 was 71 nM.
Then `Cc1c(C(=O)NCC2(N)CCCC2)sc2ncnc(Nc3ccc(F)cc3OC3CCOCC3)c12` [Example 140], with 92 nM; and `Cc1c(C(=O)N[C@@H]2CC[C@H](N)C2)sc2ncnc(Nc3ccc(F)cc3OC3CCOCC3)c12` [Example 142], with 38 nM; and `Cc1c(C(=O)N[C@H]2C[C@H](N)C2)sc2ncnc(Nc3ccc(F)cc3OC3CCOCC3)c12` [Example 143], with 41 nM.
As for `Cc1c(C(=O)N[C@H]2C[C@@H]2N)sc2ncnc(Nc3ccc(F)cc3OC3CCOCC3)c12` [Example 144], the figure is 47 nM; as for `CNCCNC(=O)c1sc2ncnc(Nc3ccc(F)cc3OC3CCOCC3)c2c1C` [Example 146], 70 nM.
As for `Cc1c(C(=O)N[C@H](C)C(=O)O)sc2ncnc(Nc3ccc(F)cc3OC3CCOCC3)c12` [Example 147], the IC50 is 15 nM.
As for `Cc1c(C(=O)N[C@@H](C)C(=O)O)sc2ncnc(Nc3ccc(F)cc3OC3CCOCC3)c12` [Example 148], the figure is 68 nM; as for `Cc1c(C(=O)NCC(=O)O)sc2ncnc(Nc3ccc(F)cc3OC3CCOCC3)c12` [Example 149], 37 nM.
Then `Cc1c(C(=O)NCC2CCC(=O)N2)sc2ncnc(Nc3ccc(F)cc3OC3CCOCC3)c12` (stereo not drawn) [Example 150], with 70 nM.
Regarding `Cc1c(C(=O)NCCn2ccnc2)sc2ncnc(Nc3ccc(F)cc3OC3CCOCC3)c12` [Example 151], the IC50 turned out to be 57 nM.
On to `Cc1c(C(=O)NCCCO)sc2ncnc(Nc3ccc(F)cc3OC3CCOCC3)c12` [Example 152], for which the IC50 came out at 40 nM.
As to `Cc1c(C(=O)NC(CO)CO)sc2ncnc(Nc3ccc(F)cc3OC3CCOCC3)c12` [Example 153], the half-inhibitory concentration (IC50) amounted to 113 nM.
Regarding `Cc1c(C(=O)NCC(C)(C)CN(C)C)sc2ncnc(Nc3ccc(F)cc3OC3CCOCC3)c12` [Example 154], the IC50 was determined as 215 nM.
On to `Cc1c(C(=O)NCCCCO)sc2ncnc(Nc3ccc(F)cc3OC3CCOCC3)c12` [Example 155], for which the half-maximal inhibitory concentration (IC50) was found to be 38 nM.
As for `Cc1c(C(=O)NC(C)CO)sc2ncnc(Nc3ccc(F)cc3OC3CCOCC3)c12` (stereo not drawn) [Example 156], the figure is 50 nM.
Then `Cc1c(C(=O)NCC(=O)N(C)C)sc2ncnc(Nc3ccc(F)cc3OC3CCOCC3)c12` [Example 157], with 65 nM; and `Cc1c(C(=O)NCC(C)O)sc2ncnc(Nc3ccc(F)cc3OC3CCOCC3)c12` (stereo not drawn) [Example 158], with 42 nM.
As for `Cc1c(C(=O)NCC(F)(F)F)sc2ncnc(Nc3ccc(F)cc3OC3CCOCC3)c12` [Example 159], the figure is 44 nM; as for `CCOCCNC(=O)c1sc2ncnc(Nc3ccc(F)cc3OC3CCOCC3)c2c1C` [Example 160], 59 nM; as for `CCCOCCNC(=O)c1sc2ncnc(Nc3ccc(F)cc3OC3CCOCC3)c2c1C` [Example 161], 56 nM.

Values taken from patent publication US8648068B2, “Heterocycloalkyl-containing thienopyrimidines for pharmaceutical compositions” (Boehringer Ingelheim International GmbH, priority 2010, dated 2014).
